Measured values published in ChEMBL document CHEMBL2034857, “Discovery of the macrocycle (9E)-15-(2-(pyrrolidin-1-yl)ethoxy)-7,12,25-trioxa-19,21,24-triaza-tetracyclo[18.3.1.1(2,5).1(14,18)]hexacosa-1(24),2,4,9,14(26),15,17,20,22-nonaene (SB1578), a potent inhibitor of janus kinase 2/fms-like tyrosine kinase-3 (JAK2/FLT3) for the treatment of rheumatoid …” (J Med Chem, 2012).

Columns and labels:
[1] = molecular target: Cyclin-dependent kinase 2 (Homo sapiens, UniProt P24941); assay: Inhibition of recombinant CDK2 using RbING as substrate after 2 hrs by luminometric assay
[2] = molecular target: Tyrosine-protein kinase JAK1 (Homo sapiens, UniProt P23458); assay: Inhibition of recombinant JAK1 using poly(Glu,Ala,Tyr) as substrate after 2 hrs by luminometric assay
[3] = molecular target: Tyrosine-protein kinase JAK2 (Homo sapiens, UniProt O60674); assay: Inhibition of recombinant JAK2 using poly(Glu,Ala,Tyr) as substrate after 2 hrs by luminometric assay
[4] = molecular target: T1, Tyrosine-protein kinase JAK3 (Homo sapiens, UniProt P52333); assay: Inhibition of recombinant JAK3 using poly(Glu,Ala,Tyr) as substrate after 2 hrs by luminometric assay
T1 sequence (P52333 whole entry): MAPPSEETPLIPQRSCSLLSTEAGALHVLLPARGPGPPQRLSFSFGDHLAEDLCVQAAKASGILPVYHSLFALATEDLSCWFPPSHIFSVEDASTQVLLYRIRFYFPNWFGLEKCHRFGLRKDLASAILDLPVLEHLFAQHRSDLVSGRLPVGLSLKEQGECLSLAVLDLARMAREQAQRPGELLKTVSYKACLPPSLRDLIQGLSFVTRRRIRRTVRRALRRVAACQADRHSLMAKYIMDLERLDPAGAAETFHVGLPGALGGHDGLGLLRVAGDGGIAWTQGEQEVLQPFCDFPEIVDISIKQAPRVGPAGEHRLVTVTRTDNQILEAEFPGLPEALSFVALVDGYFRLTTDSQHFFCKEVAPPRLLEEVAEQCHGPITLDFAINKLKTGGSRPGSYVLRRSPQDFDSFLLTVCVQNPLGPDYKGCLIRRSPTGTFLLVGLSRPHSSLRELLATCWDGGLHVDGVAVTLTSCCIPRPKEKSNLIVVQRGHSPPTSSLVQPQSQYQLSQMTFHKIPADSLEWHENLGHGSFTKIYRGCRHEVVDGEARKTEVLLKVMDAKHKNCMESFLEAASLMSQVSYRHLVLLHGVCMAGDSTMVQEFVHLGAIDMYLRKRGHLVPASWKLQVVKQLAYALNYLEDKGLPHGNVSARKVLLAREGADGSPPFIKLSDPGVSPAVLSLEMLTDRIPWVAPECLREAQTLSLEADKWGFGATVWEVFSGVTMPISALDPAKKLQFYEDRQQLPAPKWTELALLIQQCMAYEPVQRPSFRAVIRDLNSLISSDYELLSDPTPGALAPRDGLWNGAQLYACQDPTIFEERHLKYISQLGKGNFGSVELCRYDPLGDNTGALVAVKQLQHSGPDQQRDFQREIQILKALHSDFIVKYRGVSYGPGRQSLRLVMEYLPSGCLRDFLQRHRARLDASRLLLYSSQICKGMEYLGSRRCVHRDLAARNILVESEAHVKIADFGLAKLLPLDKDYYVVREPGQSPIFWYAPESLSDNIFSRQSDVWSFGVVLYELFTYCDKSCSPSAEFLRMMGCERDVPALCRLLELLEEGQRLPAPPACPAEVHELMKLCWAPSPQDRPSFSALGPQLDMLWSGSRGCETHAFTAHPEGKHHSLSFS

[5] = molecular target: T2, Receptor-type tyrosine-protein kinase FLT3 (Homo sapiens, UniProt P36888); assay: Inhibition of recombinant FLT3 using poly(Glu,Tyr) as substrate after 2 hrs by luminometric assay
T2 sequence (P36888 whole entry): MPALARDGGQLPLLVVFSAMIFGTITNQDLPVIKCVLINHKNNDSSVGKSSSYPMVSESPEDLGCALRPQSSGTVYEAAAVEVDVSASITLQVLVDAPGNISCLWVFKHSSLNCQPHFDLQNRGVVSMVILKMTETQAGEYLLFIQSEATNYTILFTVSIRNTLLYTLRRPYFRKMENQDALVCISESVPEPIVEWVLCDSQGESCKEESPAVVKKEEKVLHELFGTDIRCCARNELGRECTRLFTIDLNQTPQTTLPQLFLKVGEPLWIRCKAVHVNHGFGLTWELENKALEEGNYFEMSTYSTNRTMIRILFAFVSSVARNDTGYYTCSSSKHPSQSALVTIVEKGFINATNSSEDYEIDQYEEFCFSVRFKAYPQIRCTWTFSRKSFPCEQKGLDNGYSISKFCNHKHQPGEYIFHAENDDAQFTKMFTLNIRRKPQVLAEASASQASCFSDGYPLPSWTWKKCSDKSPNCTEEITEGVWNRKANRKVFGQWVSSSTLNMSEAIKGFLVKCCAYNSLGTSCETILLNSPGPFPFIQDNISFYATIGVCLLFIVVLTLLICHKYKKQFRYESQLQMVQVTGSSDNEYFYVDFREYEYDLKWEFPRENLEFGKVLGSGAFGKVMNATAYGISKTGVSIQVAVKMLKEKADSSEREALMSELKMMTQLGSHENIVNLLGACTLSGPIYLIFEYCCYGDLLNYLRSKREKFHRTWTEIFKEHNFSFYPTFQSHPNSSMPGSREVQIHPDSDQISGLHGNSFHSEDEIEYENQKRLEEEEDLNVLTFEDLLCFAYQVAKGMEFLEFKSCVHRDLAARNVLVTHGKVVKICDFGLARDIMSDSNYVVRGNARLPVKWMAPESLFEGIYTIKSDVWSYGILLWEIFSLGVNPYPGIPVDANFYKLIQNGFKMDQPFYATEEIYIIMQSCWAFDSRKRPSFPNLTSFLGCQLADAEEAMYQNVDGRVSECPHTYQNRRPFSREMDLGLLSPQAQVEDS

[6] = molecular target: Non-receptor tyrosine-protein kinase TYK2 (Homo sapiens, UniProt P29597); assay: Inhibition of TYK2
[7] = Kinetic solubility in PBS buffer at pH 7; type: physicochemical; conditions: read-out: Kinetic_solubility
[8] = molecular target: Cytochrome P450 3A4 (Homo sapiens, UniProt P08684); assay: Inhibition of CYP3A4 in human liver microsomes using testosterone as substrate by LC-MS/MS analysis; type: ADME, Microsome
[9] = molecular target: Cytochrome P450 2D6 (Homo sapiens, UniProt P10635); assay: Inhibition of CYP2D6 in human liver microsomes using dextromethorphan as substrate by LC-MS/MS analysis; type: ADME, Microsome
[10] = Half life in human liver microsomes; type: ADME, Microsome
[11] = Half life in mouse liver microsomes; type: ADME, Microsome
[12] = molecular target: Voltage-gated inwardly rectifying potassium channel KCNH2 (Homo sapiens, UniProt Q12809); assay: Displacement of dofetilide from human ERG
[13] = tested on: BaF3; assay: Antiproliferative activity against mouse BAF3 cells expressing JAK2 V617F mutant after 48 hrs by luciferase reporter gene assay; type: functional; conditions: BaF3, 48 h
[14] = tested on: HL-60; assay: Antiproliferative activity against human HL60 cells expressing FLT3 after 48 hrs by luciferase reporter gene assay; type: functional; conditions: HL-60, 48 h
[15] = Selectivity ratio of IC50 for recombinant CDK2 to IC50 for recombinant JAK2
[16] = Selectivity ratio of IC50 for recombinant JAK1 to IC50 for recombinant JAK2
[17] = Selectivity ratio of IC50 for recombinant JAK3 to IC50 for recombinant JAK2

Chain of Tyrosine-protein kinase JAK1 (P23458 whole entry): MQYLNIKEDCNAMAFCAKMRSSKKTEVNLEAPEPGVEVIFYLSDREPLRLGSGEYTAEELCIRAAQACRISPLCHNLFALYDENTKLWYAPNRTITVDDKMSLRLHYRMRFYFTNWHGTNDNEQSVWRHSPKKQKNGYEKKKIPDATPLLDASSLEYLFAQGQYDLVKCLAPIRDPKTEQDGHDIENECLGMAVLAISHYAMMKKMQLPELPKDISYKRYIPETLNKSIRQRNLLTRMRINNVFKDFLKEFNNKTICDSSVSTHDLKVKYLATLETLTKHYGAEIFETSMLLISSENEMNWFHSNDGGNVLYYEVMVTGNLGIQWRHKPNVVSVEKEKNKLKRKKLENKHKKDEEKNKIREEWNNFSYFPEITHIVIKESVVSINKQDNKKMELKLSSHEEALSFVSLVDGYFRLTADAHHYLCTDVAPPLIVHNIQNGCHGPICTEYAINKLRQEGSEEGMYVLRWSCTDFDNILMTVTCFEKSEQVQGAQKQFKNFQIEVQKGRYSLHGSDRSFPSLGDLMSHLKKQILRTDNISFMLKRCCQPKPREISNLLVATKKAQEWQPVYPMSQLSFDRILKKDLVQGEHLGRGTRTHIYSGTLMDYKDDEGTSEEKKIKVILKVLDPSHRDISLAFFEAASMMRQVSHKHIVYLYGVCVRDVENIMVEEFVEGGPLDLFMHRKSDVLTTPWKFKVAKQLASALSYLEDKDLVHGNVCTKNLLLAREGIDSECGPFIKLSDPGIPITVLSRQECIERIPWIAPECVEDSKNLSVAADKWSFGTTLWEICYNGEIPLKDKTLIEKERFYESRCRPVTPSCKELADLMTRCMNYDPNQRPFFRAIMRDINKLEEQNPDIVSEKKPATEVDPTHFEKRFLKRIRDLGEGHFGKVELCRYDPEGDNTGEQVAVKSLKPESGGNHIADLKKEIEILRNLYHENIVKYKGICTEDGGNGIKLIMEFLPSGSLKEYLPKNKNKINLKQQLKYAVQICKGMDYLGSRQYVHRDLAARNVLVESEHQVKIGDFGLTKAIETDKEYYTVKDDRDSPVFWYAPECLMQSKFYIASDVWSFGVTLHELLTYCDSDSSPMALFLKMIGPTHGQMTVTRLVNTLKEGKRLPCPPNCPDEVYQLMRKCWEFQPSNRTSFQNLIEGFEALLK
Chain of Non-receptor tyrosine-protein kinase TYK2 (P29597 whole entry): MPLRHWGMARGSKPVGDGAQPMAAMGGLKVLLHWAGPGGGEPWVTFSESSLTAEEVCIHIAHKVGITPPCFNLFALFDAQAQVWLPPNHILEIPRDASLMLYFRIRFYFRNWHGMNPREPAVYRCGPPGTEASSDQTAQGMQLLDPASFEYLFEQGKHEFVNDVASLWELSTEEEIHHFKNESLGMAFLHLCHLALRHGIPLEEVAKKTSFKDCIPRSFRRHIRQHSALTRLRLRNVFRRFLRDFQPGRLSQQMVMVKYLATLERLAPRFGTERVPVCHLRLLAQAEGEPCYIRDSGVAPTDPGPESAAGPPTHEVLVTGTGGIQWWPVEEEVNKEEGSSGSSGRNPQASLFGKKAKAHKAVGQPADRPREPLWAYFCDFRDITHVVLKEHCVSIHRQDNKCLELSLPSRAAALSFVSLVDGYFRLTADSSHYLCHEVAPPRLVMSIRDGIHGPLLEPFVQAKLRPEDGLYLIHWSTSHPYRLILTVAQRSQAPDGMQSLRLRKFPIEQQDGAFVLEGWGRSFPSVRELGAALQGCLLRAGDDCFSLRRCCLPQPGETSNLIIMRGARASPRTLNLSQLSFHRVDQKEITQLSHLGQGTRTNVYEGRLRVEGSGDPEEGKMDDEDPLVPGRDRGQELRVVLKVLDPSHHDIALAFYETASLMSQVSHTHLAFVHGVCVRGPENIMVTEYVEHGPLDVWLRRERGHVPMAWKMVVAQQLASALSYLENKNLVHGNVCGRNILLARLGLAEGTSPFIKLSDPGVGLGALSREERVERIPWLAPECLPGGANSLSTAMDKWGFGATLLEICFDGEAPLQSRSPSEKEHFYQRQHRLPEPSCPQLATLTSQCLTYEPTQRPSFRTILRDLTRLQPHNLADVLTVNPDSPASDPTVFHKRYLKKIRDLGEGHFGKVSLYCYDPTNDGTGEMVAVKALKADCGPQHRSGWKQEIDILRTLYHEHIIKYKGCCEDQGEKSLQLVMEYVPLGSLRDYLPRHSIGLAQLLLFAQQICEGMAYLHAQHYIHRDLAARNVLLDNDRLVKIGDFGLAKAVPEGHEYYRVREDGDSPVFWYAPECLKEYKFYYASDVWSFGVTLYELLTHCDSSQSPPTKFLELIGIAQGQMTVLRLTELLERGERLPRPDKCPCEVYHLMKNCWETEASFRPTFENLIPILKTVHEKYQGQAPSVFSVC
Chain of Tyrosine-protein kinase JAK2 (O60674 whole entry): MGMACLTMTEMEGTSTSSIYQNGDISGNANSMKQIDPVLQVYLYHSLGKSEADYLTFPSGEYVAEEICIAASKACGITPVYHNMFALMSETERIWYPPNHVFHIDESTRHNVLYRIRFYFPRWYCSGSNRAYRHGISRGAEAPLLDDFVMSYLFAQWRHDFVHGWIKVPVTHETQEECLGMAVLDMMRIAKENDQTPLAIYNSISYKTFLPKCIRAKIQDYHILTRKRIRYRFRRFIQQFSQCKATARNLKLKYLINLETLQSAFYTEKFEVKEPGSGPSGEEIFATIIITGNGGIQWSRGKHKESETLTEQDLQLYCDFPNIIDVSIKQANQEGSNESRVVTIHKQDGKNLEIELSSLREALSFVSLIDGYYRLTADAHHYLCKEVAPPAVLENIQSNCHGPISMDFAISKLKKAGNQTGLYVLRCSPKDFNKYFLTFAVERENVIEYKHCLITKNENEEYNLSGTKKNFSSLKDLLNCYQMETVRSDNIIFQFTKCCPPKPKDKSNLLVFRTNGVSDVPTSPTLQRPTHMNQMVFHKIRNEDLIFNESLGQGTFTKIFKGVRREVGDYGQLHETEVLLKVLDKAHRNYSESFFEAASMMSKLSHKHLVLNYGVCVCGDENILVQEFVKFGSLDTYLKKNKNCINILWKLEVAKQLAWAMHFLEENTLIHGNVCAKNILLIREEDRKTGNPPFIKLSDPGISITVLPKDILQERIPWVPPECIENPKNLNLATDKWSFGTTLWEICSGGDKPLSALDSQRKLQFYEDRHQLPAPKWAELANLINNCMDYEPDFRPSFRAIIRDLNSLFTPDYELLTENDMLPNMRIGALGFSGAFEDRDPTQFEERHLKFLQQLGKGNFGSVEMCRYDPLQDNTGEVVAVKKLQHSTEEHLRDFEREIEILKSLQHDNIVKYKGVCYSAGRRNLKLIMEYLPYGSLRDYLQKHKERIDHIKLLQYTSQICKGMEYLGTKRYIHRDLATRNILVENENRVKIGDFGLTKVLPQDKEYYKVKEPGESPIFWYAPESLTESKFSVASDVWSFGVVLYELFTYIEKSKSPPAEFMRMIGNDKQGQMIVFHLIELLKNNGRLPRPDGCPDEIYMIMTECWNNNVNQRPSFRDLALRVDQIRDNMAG
Chain of Cytochrome P450 3A4 (P08684 whole entry): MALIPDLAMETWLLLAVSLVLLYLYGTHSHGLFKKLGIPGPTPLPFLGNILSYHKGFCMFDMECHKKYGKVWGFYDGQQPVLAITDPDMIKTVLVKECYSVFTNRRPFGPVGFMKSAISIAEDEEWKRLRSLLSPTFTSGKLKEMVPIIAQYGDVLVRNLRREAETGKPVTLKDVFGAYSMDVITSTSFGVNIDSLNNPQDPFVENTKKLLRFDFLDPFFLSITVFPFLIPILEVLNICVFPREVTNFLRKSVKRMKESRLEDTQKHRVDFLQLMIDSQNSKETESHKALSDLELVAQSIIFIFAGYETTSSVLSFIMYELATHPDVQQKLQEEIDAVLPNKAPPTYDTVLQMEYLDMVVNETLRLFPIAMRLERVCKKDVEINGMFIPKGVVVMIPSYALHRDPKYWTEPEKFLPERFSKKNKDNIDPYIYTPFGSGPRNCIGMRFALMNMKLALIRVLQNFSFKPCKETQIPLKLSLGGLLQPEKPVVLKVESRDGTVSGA
Chain of Cytochrome P450 2D6 (P10635 whole entry): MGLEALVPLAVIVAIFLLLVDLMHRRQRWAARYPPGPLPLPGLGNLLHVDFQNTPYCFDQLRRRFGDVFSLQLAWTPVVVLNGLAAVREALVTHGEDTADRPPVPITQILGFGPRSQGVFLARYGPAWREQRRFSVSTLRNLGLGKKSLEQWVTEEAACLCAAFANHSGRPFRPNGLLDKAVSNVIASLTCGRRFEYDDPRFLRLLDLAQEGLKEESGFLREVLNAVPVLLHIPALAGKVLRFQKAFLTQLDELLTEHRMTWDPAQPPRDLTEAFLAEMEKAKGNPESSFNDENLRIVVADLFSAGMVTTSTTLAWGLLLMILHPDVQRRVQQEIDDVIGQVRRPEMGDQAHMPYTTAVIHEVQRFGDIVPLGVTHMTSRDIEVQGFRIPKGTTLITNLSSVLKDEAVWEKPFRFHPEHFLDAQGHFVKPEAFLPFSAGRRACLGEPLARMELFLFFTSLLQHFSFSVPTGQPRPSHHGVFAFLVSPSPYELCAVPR

Row | IC50 [1] [nM] | IC50 [2] [nM] | IC50 [3] [nM] | IC50 [4] [nM] | IC50 [5] [nM] | IC50 [6] [nM] | solubility kinetic [7] [µg/mL] | IC50 [8] [nM] | IC50 [9] [nM] | half-life [10] [min] | half-life [11] [min] | GI50 [13] [nM] | GI50 [14] [nM] | Ratio IC50 [15] | Ratio IC50 [16] | Ratio IC50 [17] | SMILES | IC50 [12] [nM]
1 | 200 | > 10000 | 930 | > 10000 | 560 | 950 |  |  |  |  |  |  |  |  |  |  | C1=C/COCc2cncc(c2)-c2ccnc(n2)Nc2cccc(c2)COC/1 | 
2 | > 10000 | > 10000 | > 10000 | > 10000 | > 10000 | > 10000 |  |  |  |  |  |  |  |  |  |  | CN1C/C=C/COCC2CCCN(C2)c2ccnc(n2)Nc2cccc(c2)C1 (mixture of isomers) | 
3 | 77 | 1000 |  | > 10000 | 93 | 1500 |  |  |  |  |  |  |  |  |  |  | CN1C/C=C/CCn2ccc3ccc(cc32)-c2ccnc(n2)Nc2cccc(c2)C1 (mixture of isomers) | 
4 | 83 | 4800 |  | > 10000 | 73 |  |  |  |  |  |  |  |  |  |  |  | C1=C/Cn2ccc3ccc(cc32)-c2ccnc(n2)Nc2cccc(c2)COC/1 (mixture of isomers) | 
5 | 22 | 170 | 260 | > 10000 | 310 | 65 |  |  |  |  |  |  |  |  |  |  | CN1C/C=C/CCOc2cc(ccn2)-c2ccnc(n2)Nc2cccc(c2)C1 (mixture of isomers) | 
6 | 420 | > 10000 | > 10000 | > 10000 | 4800 | 5900 |  |  |  |  |  |  |  |  |  |  | CN1C/C=C/COCc2cncc(c2)-c2ccnc(n2)Nc2cccc(c2)C1 (mixture of isomers) | 
7 | 320 | 1800 | 820 | > 10000 | 770 | 1500 |  |  |  |  |  |  |  |  |  |  | CN1C/C=C/COCC2=CC=C(O2)c2ccnc(n2)Nc2cccc(c2)C1 (mixture of isomers) | 
8 | 680 | 8000 | 220 | > 10000 | 620 | 670 |  |  |  |  |  |  |  |  |  |  | C1=C2COC/C=C/COCc3cccc(c3)Nc3nccc(n3)C(=C1)O2 (mixture of isomers) | 
9 | 230 |  | 63 | 1140 | 7.9 |  |  |  |  |  |  |  |  |  |  |  | C1=C/Cn2ccc3ccc(cc32)-c2ccnc(n2)Nc2ccc(OCCN3CCCC3)c(c2)COC/1 (mixture of isomers) | 
10 | 2500 | 5100 | 370 | > 10000 | 17 | 440 |  |  |  |  |  |  |  |  |  |  | Cc1cnc2nc1-c1ccc3ccn(c3c1)C/C=C/COCc1cc(ccc1OCCN1CCCC1)N2 (mixture of isomers) | 
11 | 3200 | > 10000 | 290 | 1000 | 63 | 630 |  |  |  |  |  |  |  |  |  |  | C1=C/COCc2cc(ccc2OCCN2CCCC2)Nc2nccc(n2)-c2cncc(c2)COC/1 (mixture of isomers) | 
12 | 270 | 970 | 18 | 1400 | 31 | 30 |  |  |  |  |  |  |  |  |  |  | C1=C/COCc2cc(ccc2OCCN2CCCC2)Nc2nccc(n2)-c2ccnc(c2)OCC/1 (mixture of isomers) | 
13 | 1600 | 650 |  | > 10000 | 120 | 710 |  |  |  |  |  |  |  |  |  |  | CN1C/C=C/COCC2=CC=C(O2)c2ccnc(n2)Nc2ccc(OCCN3CCCC3)c(c2)C1 (mixture of isomers) | 
14 | 710 | 200 | 90 | > 10000 | 12 | 41 |  |  |  |  |  |  |  |  |  |  | CN1C/C=C/COCC2=CC=C(S2)c2ccnc(n2)Nc2ccc(OCCN3CCCC3)c(c2)C1 (mixture of isomers) | 
15 | 8600 | 3200 | 1100 | > 10000 | 1200 | 590 |  |  |  |  |  |  |  |  |  |  | COCCOc1ccc2cc1CN(C)C/C=C/COCC1=CC=C(O1)c1ccnc(n1)N2 (mixture of isomers) | 
16 | > 10000 | 1900 | 110 | 9200 | 180 | 310 |  |  |  |  |  |  |  |  |  |  | C1=C/COCc2cc(ccc2OCCN2CCCC2)Nc2nccc(n2)-c2cc(co2)COC/1 (mixture of isomers) | 
17 | 330 | 390 | 170 | > 10000 | 22 | 33 |  |  |  |  |  |  |  |  |  |  | COCCOc1ccc2cc1CN(C)C/C=C/COCC1=CC=C(S1)c1ccnc(n1)N2 (mixture of isomers) | 
18 | 2900 | 420 | 7.3 | 650 | 24 | 32 | 154 | > 10000 | > 10000 | > 60 | 27 | 55 | 200 |  |  |  | C1=C2COC/C=C/COCc3cc(ccc3OCCN3CCCC3)Nc3nccc(n3)C(=C1)S2 (mixture of isomers) | 7200
19 | 6800 | 1500 | 17 | 680 | 45 | 47 | 218 |  |  | > 60 | 25 | 80 | 640 | 400 | 88 | 40 | C1=C/COCc2cc(ccc2OCCN2CCCC2)Nc2nccc(n2)-c2csc(c2)COC/1 (mixture of isomers) | 
20 | > 10000 | 3000 | 67 | 8800 | 48 | 120 | > 250 | > 10000 | > 10000 | > 60 | 18 |  | 710 | > 149 | 45 | 131 | C1=C/COCc2cc(ccc2OCCN2CCCC2)Nc2nccc(n2)-c2coc(c2)COC/1 (mixture of isomers) | 
21 |  |  |  |  |  |  |  |  |  |  |  |  |  | 397 | 57 | 89 | C1=C/COCc2cc(ccc2OCCN2CCCC2)Nc2nccc(n2)-c2ccc(s2)COC/1 (mixture of isomers) | 
